Literature values as cited in publication PMC3582496 (PLoS Biology, 2013).

What was measured:
CN [1] = tested on: CN
CN [2] = tested on: CN; remark: listed apart in the source

Row | Molecule | effect on rate of pNpp hydrolysis (CN [1]) | Km (CN [2]) [µM] | Vmax (CN [2]) [µmol/min/mg]
1 | C=CC[C@@H]1/C=C(\C)C[C@H](C)C[C@H](OC)[C@H]2O[C@@](O)(C(=O)C(=O)N3CCCC[C@H]3C(=O)O[C@H](/C(C)=C/[C@@H]3CC[C@@H](O)[C@H](OC)C3)[C@H](C)[C@@H](O)CC1=O)[C@H](C)C[C@@H]2OC [FK506] | rate increases | – | –
2 | DLDVPIPGRFDRRVpSVCAE [RII phosphopeptide] | – | 26 | 1.7
3 | cyclosporin A [CSA] | rate increases | – | –
